Test results from patent publication US20250099427A1, “Drug and Method of Treating or Preventing Renal Disease Using Drug” (Showa University, priority 2018, published 2025).

What was measured:
Format in all cases: in vivo, mouse
[1] = system: Acute Renal Failure Animal Model; test: Test using acute renal failure animal model (renal ischemia and reperfusion), renal function parameters; details: for Cer: creatinine clearance; for FENa: fractional excretion of sodium; for KW: kidney weight
Source text: A male ddY strain mouse (30 g) was used as an experimental animal. Under anesthesia with isoflurane, the right flank was incised about 2 cm to expose the kidney. After ligating the renal arteries and veins and the ureter, the right kidney was isolated.
A recovery period of 2 weeks was given, and then an acute renal failure mouse model was produced. Under anesthesia with isoflurane, the left abdomen was incised about 3 cm to expose the left kidney, and the fat around the renal arteries and veins was removed. The blood flow in the left renal arteries and veins was blocked using an atraumatic clip, and the kidney was left in ischemia for 45 minutes. The blood flow was then reperfused by removing the atraumatic clip, the kidney was returned to the abdominal cavity, and the flank was sutured. Mice similarly subjected to the steps other than the ischemia and reperfusion steps using the atraumatic clip were designated as a sham group (eight mice).
After 15 minutes of the initiation of ischemia, the vehicle, SMTP-7, SMTP-27, SMTP-44D, and edaravone were continuously administered to the femoral vein for 30 minutes.
24 hours after the ischemia and reperfusion processes, urine was collected for 24 hours using a metabolic cage, and the urinary output (UF; μL/min/kg) was measured. During collecting urine, only water was freely given. After urine collection, the body weight of each mouse was measured, and blood was collected from the abdominal aorta under anesthesia with isoflurane. After blood collection, the left kidney was isolated and the fat was removed in physiological saline. The kidney weight (KW; mg/g) was measured, and then the kidney was fixed in a 10% neutral buffered formalin solution for Hematoxylin Eosin (HE) staining.
The collected blood was centrifuged at 800×g for 15 minutes at 25° C. to collect serum. Further, the urine collected using a metabolic cage was also used to evaluate renal function. In order to evaluate parameters in the serum, blood urea nitrogen (BUN; mg/dL) was measured using a QuantiChrom Urea Assay Kit (Funakoshi Co., Ltd.). Serum creatinine concentration (Scr; mg/dL) and urinary creatinine concentration (Ucr; mg/dL) were measured using LabAssay (trademark) Creatinine (manufactured by Wako Pure Chemical Industries, Ltd.), and creatinine clearance (Ccr; mL/min/kg) was calculated. The concentrations of sodium in the serum and urine were measured using Fuji Dry Chem 7000 (manufactured by FUJIFILM Corporation), and fractional excretion of sodium (FENa; %) was calculated. Urinary albumin concentration (Ualb; mg/hr/kg) was measured using Albwel M (manufactured by Cosmo Bio Co., Ltd.).
(§1) In Table 11, the experimental results are expressed in mean±standard error in eight mice in each group. For comparison among multiple groups, firstly, one-way analysis of variance (ANOVA) was conducted, and then a Bonferroni test was conducted, if significant difference was recognized. Significant difference was recognized with a significance level of less than 5% (P<0.05).

[2] = system: Chronic Renal Failure Animal Model; test: Test using chronic renal failure animal model (nephrectomy + acetic acid application), renal function parameters; details: Table 10 experiment (edaravone instead of SMTP-7); 30 mg/kg, same regimen as the SMTP-7 30 mg/kg group
Method: A male ddY strain mouse (body weight: 30 g to 40 g) was used. Under anesthesia with isoflurane, the right flank of the mouse was incised, the renal arteries and veins were ligated, and then the right kidney was isolated. After suturing, acrinol was applied to the suture site as a disinfection treatment, and enrofloxacin was subcutaneously administered at 5 mg/kg as a preventive measure against infection, and acetaminophen was subcutaneously administered at 75 mg/kg as an analgesic treatment. After a recovery period of 3 to 4 weeks, the left abdomen of the mouse was incised, 100% acetic acid was applied to both sides of the kidney 10 times. This was defined as one course, and two courses were conducted at 5 minute intervals. After suturing, postoperative treatment was conducted in the same manner as in the removal of one of the kidneys. Considering the effect of surgery, a sham group to which acetic acid was not applied was provided.
4 weeks after the application of acetic acid, SMTP-7 was administered at a dose of 10 mg/kg or 30 mg/kg. The administration was carried out three times a week for 8 consecutive weeks by intraperitoneal administration. In addition, physiological saline was similarly administered to the sham group (without acetic acid application) and the Control group (with acetic acid application).
12 weeks after the application of acetic acid, urine was collected for 24 hours using a metabolic cage, and the urinary output was measured. During collecting urine, water was freely given. After urine collection, blood was collected from the descending aorta, the collected blood was centrifuged at 3000 rpm for 15 minutes, serum was separated, and BUN (urea nitrogen) and sCr (serum creatinine value) were measured. Further, protein and creatinine in the urine were also measured to calculate creatinine clearance (Ccr). BUN was measured using Urea B-test Wako (manufactured by Wako Pure Chemical Industries, Ltd.) and a QuantiChrom Urea Assay Kit (manufactured by Funakoshi Co., Ltd.), sCr was measured using Lab Assay Creatinine (manufactured by Wako Pure Chemical Industries, Ltd.), and urinary protein was measured using a BCA Protein assay kit (Thermo Fisher Scientific).
Renal function was evaluated by measuring BUN, sCr, urinary output, and urinary protein. In addition, urinary creatinine was measured to calculate creatinine clearance (Ccr).
In Table 9, the experimental results are expressed in mean±standard error. With reference to statistically significant difference, an unpaired test between two groups (Student's t-test) was conducted for comparison between two groups, and one-way analysis of variance was conducted and then a Dunnett test was conducted for comparison among multiple groups. In all cases, a significance level of 5% or less (P<0.05) was regarded as significant difference.
The experiment and evaluation were carried out in the same manner as in the SMTP-7 (30 mg/kg) administration group, except that edaravone (30 mg/kg) was administered instead of SMTP-7 in the SMTP-7 (30 mg/kg) administration group.

[3] = system: Acute Renal Failure Animal Model; test: Acute renal failure animal model, pathological tissue specimen (HE staining) lesion scores; details: 3 mg/kg
Method: 24 hours after the ischemia and reperfusion processes, urine was collected for 24 hours using a metabolic cage, measurement of body weight was conducted, and blood was collected. Thereafter, nephrectomy was conducted, and formalin-fixed kidney was permeated with paraffin using an automatic embedding device to produce a paraffin block. The paraffin block was sliced into 3 μm sections with a microtome, and placed on a slide glass. Then, the sections were stretched with a paraffin stretcher at 52° C., and sufficiently dried overnight in a paraffin melter at 37° C. After deparaffinization and washing with water, the sections were stained with a Mayer's hematoxylin staining solution for 1 minute and washed with running water for 15 minutes. Thereafter, the sections were stained with an eosin staining solution for 45 seconds, and dehydrated with 80% to 100% ethanol, followed by clearing with xylene and sealing with marinol. Each specimen was examined microscopically at a magnification of 50 using an optical microscope. With respect to tubular dilatation, tubular necrosis, and tubular casts in the cortex, outer zone of outer medulla, and inner zone of outer medulla, the percentage of lesions in each site was evaluated according to the following criteria.
as §1, with “12,” for “11,”

[4] = 30 mg/kg continuous femoral vein 30 min from 15 min after start of 45 min ischemia, mean±SE, 8 mice
[5] = 30 mg/kg, acute renal failure model
[6] = 30 mg/kg continuous femoral vein 30 min from 15 min after start of 45 min ischemia, mean±SE, 8 mice, 30 mg/kg
[7] = urinary albumin, 30 mg/kg continuous femoral vein 30 min from 15 min after start of 45 min ischemia, mean±SE, 8 mice
[8] = urinary output, 30 mg/kg continuous femoral vein 30 min from 15 min after start of 45 min ischemia, mean±SE, 8 mice
[9] = points 0 (no lesion) to 4 (severe, 50% or more), mean±SE, 8 mice
[10] = 3 mg/kg continuous femoral vein 30 min from 15 min after start of 45 min ischemia, mean±SE, 8 mice
[11] = 3 mg/kg, acute renal failure model
[12] = 3 mg/kg continuous femoral vein 30 min from 15 min after start of 45 min ischemia, mean±SE, 8 mice, 3 mg/kg

## CC(C)=CCC/C(C)=C/CCC1(C)Oc2c(c(O)cc3c2CN(c2cc(C(=O)O)ccc2O)C3=O)CC1O (stereo not drawn) [SMTP-27]
[1]; [4]
  BUN: 59.7 ± 10.5 mg/dL
  Scr: 0.5 ± 0.0 mg/dL
[1]; [5]
  UF: 4.67 ± 0.984 mL/h/kg
  Ualb: 2.0 ± 0.4 mg/h/kg
[1]; [6]
  Cer: 150 ± 6 mL/h/kg
  FENa: 0.8±0.1%
  KW: 13.8 ± 0.7 mg/g
[1]; [7]
  Ualb: 2 ± 0.4 mg/h/kg
[1]; [8]
  UF: 4.67 ± 0.984 mL/h/kg

## CC(C)=CCCC(C)=CCCC1(C)Oc2c(c(O)cc3c2CN(C(C(=O)O)c2ccc(O)cc2)C3=O)CC1O (stereo not drawn) [SMTP-44D]
[1]; [4]
  BUN: 55.7 ± 14.2 mg/dL
  Scr: 0.6 ± 0.1 mg/dL
[1]; [5]
  UF: 6.192 ± 2.008 mL/h/kg
  Ualb: 1.3 ± 0.3 mg/h/kg
[1]; [6]
  Cer: 138 ± 24 mL/h/kg
  FENa: 1.2±0.1%
  KW: 12.3 ± 1.2 mg/g
[1]; [7]
  Ualb: 1.3 ± 0.3 mg/h/kg
[1]; [8]
  UF: 6.19 ± 2.02 mL/h/kg

## CC1=NN(c2ccccc2)C(=O)C1 [edaravone, reference compound]
[2]
  Urinary output: 3.77 ± 0.704 mL/h/kg
  Urinary protein: 553 ± 109 mg/kg/day
[3]; compared to control group
  Histopathological changes (lesion changes), result in words: lesion changes were significantly improved only in tubular necrosis and tubular casts in the outer zone of outer medulla of the kidney and tubular casts in the inner zone of outer medulla
[3]; [9]
  Tubular cast score, Cortex: 0.9 ± 0.1
  Tubular cast score, Inner zone of outer medulla: 1.5 ± 0.4
  Tubular cast score, Outer zone of outer medulla: 1.0 ± 0.2
  Tubular dilatation score, Cortex: 3.0 ± 0.5
  Tubular dilatation score, Inner zone of outer medulla: 2.4 ± 0.5
  Tubular dilatation score, Outer zone of outer medulla: 2.4 ± 0.5
  Tubular necrosis score, Cortex: 0.9 ± 0.1
  Tubular necrosis score, Inner zone of outer medulla: 0.9 ± 0.1
  Tubular necrosis score, Outer zone of outer medulla: 0.9 ± 0.1
[1]; [10]
  BUN: 61.1 ± 5.9 mg/dL
  Scr: 0.5 ± 0.0 mg/dL
[1]; [11]
  UF: 3.32 ± 0.726 mL/h/kg
  Ualb: 0.9 ± 0.2 mg/h/kg
[1]; [12]
  Cer: 126 ± 12 mL/h/kg
  FENa: 1.0±0.1%
  KW: 13.4 ± 0.6 mg/g
[1]; urinary albumin, 3 mg/kg continuous femoral vein 30 min from 15 min after start of 45 min ischemia, mean±SE, 8 mice
  Ualb: 0.9 ± 0.2 mg/h/kg
[1]; urinary output, 3 mg/kg continuous femoral vein 30 min from 15 min after start of 45 min ischemia, mean±SE, 8 mice
  UF: 3.32 ± 0.726 mL/h/kg
